Reference: patent US20130059929A1, “MICROBIOLOGICALLY STABLE, EASILY APPLICABLE PREPARATIONS” (Beiersdorf AG, priority 2010, published 2013)

Tested on: Staphylococcus epidermidis
Assay: biofilm assay (biofilm inhibition and biofilm dissolution, color reaction on microtiter plate scale, FIG. 1)
Assay type: cell-based
Conditions: based on the positive control (PC1); for biofilm-dissolving effect: timepoint 24 h; for biofilm inhibition (biofilm-inhibiting effectiveness): timepoint 0 h
Procedure: In the course of the biofilm assay, the biofilm inhibition at timepoint 0 h and also the biofilm-dissolving effect at timepoint 24 h is investigated using a color reaction on a microtiter plate scale.
The test shown in FIG. 1 was carried out with Staphylococcus epidermidis, a germ which causes little harm for people with a normal immunological defense. Staphylococcus epidermidis (syn. Staphylococcus albus, Micrococcus epidermidis, Staphylococcus saprophyticus) is a Gram-positive, plasmacoagulase-negative, saprophagic bacterium which colonizes the human skin and mucosa. Furthermore, it can be found on foods and also colonizes on polymeric surfaces (e.g. packagings). However, in a hospital, in the case of immunocompromised people, it can, in cases of lack of cleanliness, be a cause of serious diseases.

Row | Compound | biofilm-dissolving effect | effectiveness in the biofilm assay (inhibition / dissolution not distinguished) | biofilm inhibition (biofilm-inhibiting effectiveness)
1 | CC(C)(C)CC(C)(C)c1ccc(OCCOCC[N+](C)(C)Cc2ccccc2)cc1 [benzethonium chloride, benzyldimethyl (4-{2-[4-(1,1,3,3-tetramethylbutyl)phenoxy]ethoxy}ethyl)ammonium chloride] | very good biofilm-dissolving effect | – | –
2 | CCOC(=O)c1ccc(O)cc1 [ethylparaben] | – | Neither ethylparaben nor methylparaben exhibited effectiveness | –
3 | CCCCCCCCCCCC(=O)N[C@@H](CCCN=C(N)N)C(=O)OCC.Cl [lauroyl ethyl arginate, ethyl lauroyl arginate HCl] | very good biofilm-dissolving effect | – | very good biofilm-inhibiting effectiveness
4 | Cn1sccc1=O [methylisothiazolinone, 2-methyl-2H-isothiazol-3-one] | slight biofilm dissolution | – | very good biofilm-inhibiting effectiveness
5 | COC(=O)c1ccc(O)cc1 [methylparaben] | – | Neither ethylparaben nor methylparaben exhibited effectiveness | –
6 | Cc1cc(CC(C)CC(C)(C)C)n(O)c(=O)c1 (stereo not drawn) [piroctone olamine, 1-hydroxy-4-methyl-6-(2,4,4-trimethylpentyl)-2(1H)-pyridone] | slight biofilm dissolution | – | very good biofilm-inhibiting effectiveness
